# Measured values as given in US20150164868A1, “METHODS OF ADMINISTERING RIFAXIMIN WITHOUT PRODUCING ANTIBIOTIC RESISTANCE” (priority 2012, published 2015).
# Like-named read-outs stand apart in the source and are kept apart here.
# Legend:
# Staphylococcus spp. [1] = test: Rifampicin susceptibility testing (E-test strip) of Staphylococcus colonies isolated from rat stool; assay type: cell-based; conditions: for MIC: read-out: mean inhibitory concentration (MIC) for rifampicin
# Method: Rifampicin susceptibility was tested in Staphylococcus spp. isolated from stool of rats before and after rifaximin treatment for 10 days. From PEA plates, 30 random recognizable Staphylococcus colonies were picked for baseline cultures, suspended in PBS and spread on PEA agar plates to create a lawn. A commercially available rifampicin test strip was added to each lawn to detect rifampicin resistance. The range of rifampicin mean inhibitory concentrations (MICs) detected by E-test was 0.002 to 32 μg/mL. Based on manufacturer's instruction, growth at <2 ug/mL was considered sensitive, growth at 2-4 ug/mL was considered intermediate resistance to rifampicin, and growth at >4 ug/mL was considered resistant to rifampicin. After 10 days of rifaximin, stool was again plated on PEA and another 30 staphylococcal colonies were picked for producing a lawn to analyze rifampicin resistance using the applied test strip. Since no significant Staphylococcus spp. colonies remained on day 30 post rifaximin treatment, sensitivity testing could not be assessed.
# Staphylococcus spp. [2] = test: Stool Staphylococcus spp. colony counts (PEA agar) during and after daily rifaximin gavage; assay type: in vivo, Sprague-Dawley rats
# From the text: Adult male Sprague-Dawley rats were acquired and quarantined for 5 days. During this time, chow was standardized to ensure all animals had identical feeding type.
# (§1) After this equilibration period, fresh stool was collected from each rat (n=30) by anal stimulation. The stool collected on Day 0 was homogenized and plated by serial dilution with 1XPBS (Phosphate Buffered Saline) on Blood Agar with Phenylethyl Alcohol (PEA) to select for the presence of the Staphylococcal spp. Similarly, homogenized stool was serially plated on MacConkey agar to select for and determine coliform counts in the stool. All plates were incubated for 24 hours at 37° C. Based on serial stool dilution and colony counts, the baseline stool levels of Staphylococcus spp. and coliforms were determined
# (§2) Rats were divided into 3 treatment groups and gavaged daily for 10 days with or without high dose rifaximin Group 1 was gavaged with PBS alone, Group 2 was gavaged daily with rifaximin 200 mg in PBS. Groups 1 and 2 were euthanized after the 10 days of daily gavage. Group 3 was gavaged daily with rifaximin 200 mg in PBS and housed for 30 days following completion of rifaximin before euthanasia. During the rifaximin treatment, fresh stool was collected daily as described above. Again, stool was homogenized and plated by serial dilution on MacConkey and PEA agar to determine coliform and Staphylococcus spp. counts during the treatment. After the completion of 10 days of treatment, 10 rats were euthanized for bacterial quantitation by culture and qPCR throughout the intestinal tract. The remaining 10 rats were followed for 30 days after completing rifaximin. These rats had interval stool culture for quantitation of Staphylococcus spp. and coliforms and the determination of recovery time of stool flora if any.
# coliforms [3] = test: Luminal coliform culture by bowel segment; assay type: in vivo, Sprague-Dawley rats; conditions: after treatment with rifaximin vs non-treated control rats; bowel segments (FIG. 3)
# From the text: (§3) For the examination of luminal bacterial counts, rats were euthanized and dissected after 10 days of PBS (n=10) (control), after 10 days of rifaximin (n=10) and 30 days post rifaximin (n=10). During the dissection, pre-specified segments of duodenum, jejunum, ileum, cecum and left colon were ligated and resected as previously described (Pimentel et al. 2008. Dig Dis Sci 53:982-989). Luminal contents were extracted from each segment. For culture of coliforms, serial dilutions were again prepared and plated on MacConkey agar then incubated and counted. In addition, luminal contents were also used to determine total bacterial counts by qPCR.
# [4] = test system: Staphylococcus, Streptococcus, Enterococcus, and Enterobacteriaceae; conditions: species of Staphylococcus; cited from earlier work
# coliforms [5] = test: Stool coliform culture (MacConkey agar) with rifaximin gavage; assay type: in vivo, Sprague-Dawley rats
# Method: as §1
# as §2, with “Again, stool was homogenized and plated by serial dilution on MacConkey and PEA agar to determine coliform and Staphylococcus spp. counts during the treatment.” left out, “The remaining 10 rats were followed for 30 days after completing rifaximin.” left out
# Staphylococcus = test: IBS model (post C. jejuni): presence of Staphylococcus after rifaximin; assay type: in vivo, Sprague-Dawley rats; conditions: rats with IBS phenotype; 51 rats rifaximin vs 50 placebo
# Method: Following acute infection with C. jejuni, rats develop a phenotype of IBS and small intestinal bacterial overgrowth. For the examination of antibiotic resistance following rifaximin treatment in subject with IBS, 100 Sprague-Dawley rats were gavaged with 10^8 cfu of C. jejuni 81-176 within 30 minutes of gavage with a bicarbonate solution using a ball-tipped gavage needle. After gavage rats were followed with daily stool culture for C. jejuni for seven consecutive days to verify infection. In addition, stool was characterized on the basis of consistency.
# Thirty days from gavage, stool samples were collected on two consecutive days to confirm absence of C. jejuni in stool. Once rats were confirmed to have cleared C. jejuni, they were housed in common conditions for a period of three months. […]
# The rats were then randomized and received either a 200 mg dose of rifaximin in PBS or PBS alone daily for 10 days. […] Upon completion of treatment with rifaximin, the rats were monitored for an additional seven days. […]
# The effect of rifaximin on Staphylococcal species was tested and antibiotic resistance was examined. The contents of the ligated bowel segments were examined to determine the quantity and type of bacteria by segment and evaluate expression of mucosal cytokines. […]
# [6] = oral administration; Descombe et al. 1994; cited from earlier work
# total bacteria = test: qPCR of total luminal bacteria by bowel segment; assay type: in vivo, Sprague-Dawley rats
# From the text: as §3
# To quantify bacteria in the luminal contents, qPCR was used. DNA was isolated from luminal contents of the duodenal, jejunal, ileal, cecal and left colon samples using commercially available kits. Bacterial universal primers (Mohammadi et al. 2003. J Clin Microbiol 41(10):4796-4798) were used to amplify the 16S rRNA gene from DNA using a commercially available RT-PCR detection system and optical grade 96-well plates. Samples were run in duplicate. To generate standard curves, the Ct values were analyzed from ten-fold dilutions of lysed Escherichia coli cultures. E. coli from a number of laboratory strains were pooled and grown in LB media.
# The same adult male Sprague-Dawley rats from the coliform culture study described above were used here. In this experiment, ten rats were euthanized at day 10 of rifaximin treatment, and ten rats were euthanized at day 30 after completion of rifaximin treatment. As a control to these two groups, a group of 10 rats were gavaged with only PBS (placebo); these rats were also euthanized after 10 days. After euthanasia, rats were dissected to remove a segment of ileum, jejunum and duodenum as well as cecum and left colon. Luminal contents from these 5 areas were removed, and DNA was extracted. Quantitative PCR (qPCR) was used to determine the total number of bacteria in each segment of bowel. These counts were compared between control, rifaximin treated and 30 day post rifaximin rats (Example 1).
# Staphylococcal spp = test: IBS model: Staphylococcus sensitivity testing to rifampin (E-test strips); assay type: cell-based
# Method: The effect of rifaximin on Staphylococcal species was tested and antibiotic resistance was examined. The contents of the ligated bowel segments were examined to determine the quantity and type of bacteria by segment and evaluate expression of mucosal cytokines.
# Among rats with detectable staphylococcus, rifampin resistance was tested using E-test strips and Data was analyzed by Fisher's Exact Test. […] (Table 2)
# coliform bacteria = test: Effect of dietary fat with rifaximin on coliform bacteria; assay type: in vivo, Sprague-Dawley rats; conditions: healthy rats
# Method: Adult male Sprague-Dawley Rats were randomly assigned to three groups. Group 1 was gavaged daily for 7 days with rifaximin in PBS. Group 2 received rifaximin 200 mg in lipid daily by gavage. Group 3 were 10 rats only given PBS (control). Rats had fresh stool collected by anal stimulation at baseline and daily during gavage. The stool was homogenized and plated by serial dilution on MacConkey Agar (BD Diagnostics, Franklin Lakes, N.J.). This is a selective agar for coliform bacteria. Based on serial dilution, the total number of coliform bacteria was determined.
# [7] = after 10 days of gavage with rifaximin, 30 random colonies
# [8] = all rats receiving rifaximin (n=20) vs control rats
# [9] = Staphylococcus from IBS-phenotype rats treated with rifaximin
# [10] = sensitivity to rifampin, IBS-phenotype rats treated with rifaximin
compound,measurement,setting,value
CO[C@H]1/C=C/O[C@@]2(C)Oc3c(C)c(O)c4c(O)c(c(/C=N/N5CCN(C)CC5)c(O)c4c3C2=O)NC(=O)/C(C)=C\C=C\[C@H](C)[C@H](O)[C@@H](C)[C@@H](O)[C@@H](C)[C@H](OC(C)=O)[C@@H]1C [rifampicin],MIC,"Staphylococcus spp. [1]; 240 h, Staphylococcus colonies from rat stool after 10 days of high dose rifaximin, P=0.63 vs baseline",0.91 ± 0.52 µg/mL
same,MIC,Staphylococcus spp. [1]; Staphylococcus colonies from rat stool at baseline (before rifaximin),1.1 ± 1.6 µg/mL
"(2S,16Z,18E,20S,21S,22R,23R,24R,25S,26S,27S,28E)-5,6,21,23,25 Pentahydroxy-27-methoxy-2,4,11,16,20,22,24,26-octamethyl-2,7-(epoxypentadeca-(1,11,13)trienimino)benzofuro(4,5-e)pyrido(1,2,-a)benzimidazole-1,15(2H)-dione,25-acetate) [rifaximin]",Staphylococcus spp. colonies in stool 30 days after rifaximin,Staphylococcus spp. [2]; 30 days after completion of 10 days rifaximin,insufficient Staphylococcus spp. colonies in any of the rats to analyze
same,range of total count of Staphylococcus spp in stool,"Staphylococcus spp. [2]; after 10 days of rifaximin 200 mg daily gavage, 20 rats",0-8.6×10^5 cfu/ml
same,median total count of Staphylococcus spp in stool,"Staphylococcus spp. [2]; after 10 days of rifaximin 200 mg daily gavage, total of S. aureus and coag-Staphylococcus, 20 rats, p<0.01 vs baseline",1.20×10^5 cfu/ml
same,level of S. aureus in stool of rats with detectable S. aureus,Staphylococcus spp. [2]; day 10 of rifaximin treatment,2×10^3 cfu/ml
same,number of rats with detectable S. aureus in stool,"Staphylococcus spp. [2]; day 10 of rifaximin treatment, of 20 rats (18/20 at baseline)",5
same,time course of Staphylococcus spp in stool,Staphylococcus spp. [2]; during rifaximin 200 mg daily gavage,diminish significantly in stool by day 3
same,change in luminal coliform counts by culture,coliforms [3],no significant change in coliform counts by culture
same,antibacterial activity in vitro,[4],active
same,time to recovery of stool coliform count,coliforms [5]; after the 10-day rifaximin treatment,three
same,median stool coliform count,"coliforms [5]; day 10 of high dose rifaximin, P<0.01 vs baseline",2.2×10^3 cfu/mL
same,rate of colonization of rats with Staphylococcus,Staphylococcus,reduction in the rate of colonization
same,systemic absorption,[6],negligible systemic absorption
same,"Staphylococcal colonies Intermediate (2-4 ug/mL) resistance to rifampin, %",Staphylococcus spp. [1]; [7],3.3%
same,"Staphylococcal colonies Sensitive (<2 ug/mL) to rifampin, %",Staphylococcus spp. [1]; [7],96.6%
same,durability of the reduction in duodenal bacteria counts by qPCR,"total bacteria; after 10 days of rifaximin and 30 days post, P=0.08, not quite significant",sustained 30 days after the completion of rifaximin
same,duodenal total bacterial counts by qPCR,total bacteria; [8],significant reduction in duodenal bacterial counts
same,jejunal total bacterial counts by qPCR,total bacteria; [8],"appeared to diminish as well, this did not reach statistical significance"
same,"total bacterial counts by qPCR in the ileum, cecum or left colon",total bacteria; [8],no differences were seen
same,Median MIC of rifampin,Staphylococcal spp; [9],0.214 µg/mL
same,Range of rifampin MIC,Staphylococcal spp; [9],0.012 to 16 µg/mL
same,rifampin resistance of Staphylococcus after treatment,"Staphylococcal spp; rats with an IBS phenotype, detectable staphylococcus, Fisher's Exact Test",no evidence of rifampin resistance
same,% of rats with resistance,"Staphylococcal spp; resistance to rifampin, 51 IBS-phenotype rats treated with rifaximin",1.96%
same,# of intermed Staphylococcal spp,Staphylococcal spp; [10],0
same,# of resistant Staphylococcal spp,Staphylococcal spp; [10],1
same,# of sensitive Staphylococcal spp,Staphylococcal spp; [10],10
same,normal flora (coliform) counts in the small bowel,coliform bacteria; rifaximin by itself or with oil as dissolving media,did not appear to change normal flora counts
same,median coliform count in the duodenum,"coliform bacteria; rifaximin in PBS or rifaximin 200 mg in lipid, daily gavage 7 days",0
